In patent US8476256B2, “Diazonamide analogs” (Joyant Pharmaceuticals, Inc., priority 2008, dated 2013):

Experiments:
[1] = tested on: BxPC3 tumor cell line (Pancreas); experiment: Cell profiling, BxPC3; assay type: cell-based; settings: Homo sapiens, BXPC-3
Method: (§1) Cell viability assays were run using standard protocols known to those of skill in art. Cells were plated in 96 well plates at the density of 3,000-10,000 cells per well. Twenty four hours later, cells were treated with increasing concentration of test compounds (1 nM to 1 μM). After another 48 hour, cell survival was measured using CELL-TITER-GLO® reagent (Promega) following the protocol provided by the manufacture. The IC50 value was determined as the concentration of test compound that kills 50% of the cell population.

[2] = tested on: DU145 tumor cell line (Prostate); experiment: Cell profiling, DU145; assay type: cell-based; settings: Homo sapiens, DU-145
Method: as §1

[3] = tested on: Colo205 tumor cell line (Colon); experiment: Cell profiling, Colo205; assay type: cell-based; settings: Homo sapiens, COLO 205
Method: as §1

[4] = tested on: Lovo tumor cell line (Colon); experiment: Cell profiling, Lovo; assay type: cell-based; settings: Homo sapiens
Method: as §1

[5] = tested on: G361 tumor cell line (Skin); experiment: Cell profiling, G361; assay type: cell-based; settings: Homo sapiens, G-361
Method: as §1

[6] = tested on: PL45 tumor cell line (Pancreas); experiment: Cell profiling, PL45; assay type: cell-based
Method: as §1

[7] = tested on: Panc-1 tumor cell line (Pancreas); experiment: Cell profiling, Panc-1; assay type: cell-based; settings: Homo sapiens; Panc-1, Pancreas
Method: as §1

[8] = tested on: MDA-MB435 tumor cell line (Breast); experiment: Cell profiling, MDA-MB435; assay type: cell-based; settings: Homo sapiens, MDA-MB-435
Method: as §1

[9] = tested on: A2058 (human melanoma) cell line; experiment: Cell viability assay (CELL-TITER-GLO), A2058; assay type: cell-based; settings: A2058 cells, 48 hour treatment, 1 nM to 1 μM
[10] = tested on: MDA-MB231 tumor cell line (Breast); experiment: Cell profiling, MDA-MB231; assay type: cell-based; settings: Homo sapiens, MDA-MB-231
Method: as §1

[11] = tested on: T98G tumor cell line (Glial Cells); experiment: Cell profiling, T98G; assay type: cell-based; settings: Homo sapiens
Method: as §1

[12] = tested on: NCI-H226 tumor cell line (Lung); experiment: Cell profiling, NCI-H226; assay type: cell-based; settings: Homo sapiens
Method: as §1

[13] = tested on: DLD-1 tumor cell line (Colon); experiment: Cell profiling, DLD-1; assay type: cell-based; settings: Homo sapiens; DLD-1, Colon
Method: as §1

[14] = tested on: SKMES-1 tumor cell line (Lung); experiment: Cell profiling, SKMES-1; assay type: cell-based; settings: Homo sapiens, SK-MES-1; SKMES-1, Lung
Method: as §1

[15] = tested on: U937 (human leukemic monocyte lymphoma) cell line; experiment: Cell viability assay (CELL-TITER-GLO), U937; assay type: cell-based; settings: U-937, U937 cells, 48 hour treatment, 1 nM to 1 μM
[16] = tested on: A375 tumor cell line (Skin); experiment: Cell profiling, A375; assay type: cell-based; settings: Homo sapiens, A-375
Method: as §1

[17] = tested on: HCC1437 tumor cell line (Lung); experiment: Cell profiling, HCC1437; assay type: cell-based
Method: as §1

[18] = tested on: HT29 tumor cell line (Colon); experiment: Cell profiling, HT29; assay type: cell-based; settings: Homo sapiens, HT-29
Method: as §1

[19] = tested on: U937 (human leukemic monocyte lymphoma) cell line; experiment: Cell viability assay (CELL-TITER-GLO), U937; assay type: cell-based; settings: U-937, Table 8 cell profiling, U937, Blood
[20] = tested on: HCC44 tumor cell line (Lung); experiment: Cell profiling, HCC44; assay type: cell-based; settings: Homo sapiens
Method: as §1

[21] = tested on: MiaPaca-2 tumor cell line (Pancreas); experiment: Cell profiling, MiaPaca-2; assay type: cell-based; settings: Homo sapiens, MIA PaCa-2; MiaPaca-2, Pancreas
Method: as §1

[22] = tested on: NCI-H460 tumor cell line (Lung); experiment: Cell profiling, NCI-H460; assay type: cell-based; settings: Homo sapiens
Method: as §1

[23] = tested on: SW1990 tumor cell line (Pancreas); experiment: Cell profiling, SW1990; assay type: cell-based; settings: Homo sapiens
Method: as §1

[24] = tested on: A2058 (human melanoma) cell line; experiment: Cell viability assay (CELL-TITER-GLO), A2058; assay type: cell-based; settings: Table 8 cell profiling, A2058, Skin
[25] = tested on: MiaPaca (pancreatic cancer) cells; experiment: MiaPaca xenograft model, tumor free animals; assay type: in vivo, Athymic nude mice; settings: 20 mg/kg, tail vein injection, 6 injections (days 9, 11, 14, 16, 18, 21), at 35 days post tumor cell injection, 7 mice/group
Method: Animals: Athymic nude mice, female, 6-7 weeks old, 20-25 g. Animals bearing with 180-400 mg tumors were selected for experiment. 7 mice/group.
Administration: Tail vein injection, 200 μL/mouse, to provide the dose indicated.
Dosing schedule: 6 injections were given on the days indicated post-tumor cell injection.
Controls: Vehicle, Compound J at 20 mg/kg.
Test Compound preparation: Compound J and all test compounds were dissolved in 50% Cremophore/EtOH (1:1) at 10 mg/mL as stock solution. Each compound solution was diluted with saline before injection to the concentration indicated.
Xenograft Model: MiaPaca (pancreatic cancer) cells
Dosing schedule: 6 injections were given on days 9, 11, 14, 16, 18 and 21 post-tumor cell injection.
Test Compounds: Example 23, Example 24, and Example 53, at 20 mg/kg.
For animals treated with the compound of Example 24 at 20 mg/kg, 7 of 7 animals were tumor free at 35 days post tumor cell injection.

[26] = tested on: SKMEL-5 tumor cell line (Skin); experiment: Cell profiling, SKMEL-5; assay type: cell-based; settings: Homo sapiens, SK-MEL-5; SKMEL-5, Skin
Method: as §1

## CCC(O)(CC)C(=O)N[C@H]1Cc2ccc3c(c2)C24C5=C(N=C(O5)[C@H](C(C)C)NC1=O)c1ncc(o1)-c1c[nH]c5cccc(c15)-c1cccc2c1NC4O3 (stereo in doubt) [Example 24]
[1]
  IC50: 213 nM
[2]
  IC50: 57 nM
[3]
  IC50: 144 nM
[4]
  IC50: 150 nM
[5]
  IC50: 275 nM
[6]
  IC50: 113 nM
[7]
  IC50: 288 nM
[8]
  IC50: 29 nM
[9]
  IC50: 0.105 µM
[10]
  IC50: 234 nM
[11]
  IC50: 67 nM
[12]
  IC50: 104 nM
[13]
  IC50: 515 nM
[14]
  IC50: 470 nM
[15]
  IC50: 0.062 µM
[16]
  IC50: 162 nM
[17]
  IC50: 195 nM
[18]
  IC50: 90 nM
[19]
  IC50: 44 nM
[20]
  IC50: 36 nM
[21]
  IC50: 111 nM
[22]
  IC50: 242 nM
[23]
  IC50: 360 nM
[24]
  IC50: 93 nM
[25]
  Tumor-free animals out of 7: 7 of 7
[25]; listed as Ex. 24
  Tumor-free animals out of 7: 7/7 (35)
[26]
  IC50: 70 nM
